Reference: PMC7912279, “Preclinical Evaluation of ^99mTc-Labeled GRPR Antagonists maSSS/SES-PEG2-RM26 for Imaging of Prostate Cancer” (Pharmaceutics, 2021)

Key:
[1] = Octanol-water distribution coefficient (logD); format: physicochemical; conditions: determined as previously described [35]
Protocol: To test the stability, the radiolabeled peptides were incubated with 300× molar excess of cysteine or with PBS at room temperature for 1 h. The octanol-water distribution coefficient (logD) was determined as previously described.

PC-3 xenografts = experiment: Biodistribution in tumor bearing mice; format: in vivo; conditions: BALB/c nu/nu mice bearing PC-3 xenografts, 3 h pi
Protocol: Animals: All in vivo experiments were carried out on BALB/c nu/nu or NMRI mice provided by Scanbur A/S (Sollentuna, Sweden). All animal studies were approved by the Ethics Committee for Animal Research in Uppsala (Sweden), following the national legislation on the protection of laboratory animals (project identification code of approval 5/16, 26 February 2016). Prostate cancer xenografts expressing GRPR were established in BALB/c nu/nu mice by subcutaneous injection of PC-3 cell suspension in PBS (7 × 10^6 cells in 100 µL) four weeks before the experiment. Four to seven mice per data point were used in in vivo experiments, two mice per data point were used in metabolic analysis and SPECT/CT imaging experiments.
Biodistribution in tumor bearing mice: The comparison of biodistribution between the two radiolabeled peptides was evaluated in BALB/c nu/nu mice bearing PC-3 xenografts. Each mouse was injected with 40 pmol (30 kBq, mass of injected peptide was adjusted with unlabeled peptide) of either [^99mTc]Tc-maSSS-PEG2-RM26 or [^99mTc]Tc-maSES-PEG2-RM26. The mice were euthanized 3 h pi. Sample collection and activity measurements were done as described above. The biodistribution of [^99mTc]Tc-maSSS-PEG2-RM26 was further studied at 6 h pi following the same protocol. Additionally for [^99mTc]Tc-maSSS-PEG2-RM26, one group of xenograft bearing mice was injected with 40 pmol (30 kBq, mass of injected peptide was adjusted with unlabeled peptide) of labeled peptide with 5 nmol of unlabeled peptide and euthanized 3 h pi.

[2] = 40 pmol (30 kBq), gamma counter, 4-7 mice

## CC(C)C[C@H](NC(=O)C[C@H](O)[C@H](CC(C)C)NC(=O)[C@H](Cc1c[nH]cn1)NC(=O)CNC(=O)[C@@H](NC(=O)[C@H](C)NC(=O)[C@H](Cc1c[nH]c2ccccc12)NC(=O)[C@H](CCC(N)=O)NC(=O)[C@@H](Cc1ccccc1)NC(=O)COCCOCCNC(=O)[C@H](CO)NC(=O)[C@H](CCC(=O)O)NC(=O)[C@H](CO)NC(=O)CS)C(C)C)C(N)=O [[^99mTc]Tc-maSES-PEG2-RM26, metal not drawn]
[1]
  logD: -1.0
PC-3 xenografts; [2]
  uptake, Blood: 0.15 ± 0.07 % IA/g
  uptake, Bone: 0.04 ± 0.02 % IA/g
  uptake, GI (gastrointestinal tract with content): 46 ± 4 % IA
  uptake, Intestine: 1.1 ± 0.6 % IA/g
  uptake, Kidneys: 3 ± 2 % IA/g
  uptake, Liver: 1.1 ± 0.3 % IA/g
  uptake, Lung: 0.14 ± 0.07 % IA/g
  uptake, Muscle: 0.04 ± 0.03 % IA/g
  uptake, Pancreas: 2 ± 1 % IA/g
  uptake, Spleen: 0.11 ± 0.02 % IA/g
  uptake, Stomach: 0.9 ± 0.4 % IA/g
  uptake, Tumor: 2.9 ± 0.7 % IA/g
PC-3 xenografts; 40 pmol
  Tumor-to-non-tumor ratio, Blood: 26 ± 19
  Tumor-to-non-tumor ratio, Bone: 84 ± 54
  Tumor-to-non-tumor ratio, Intestine: 3 ± 2
  Tumor-to-non-tumor ratio, Kidneys: 2 ± 2
  Tumor-to-non-tumor ratio, Liver: 3.0 ± 0.8
  Tumor-to-non-tumor ratio, Lung: 26 ± 16
  Tumor-to-non-tumor ratio, Muscle: 90 ± 52
  Tumor-to-non-tumor ratio, Pancreas: 1.5 ± 0.8
  Tumor-to-non-tumor ratio, Spleen: 24 ± 10
  Tumor-to-non-tumor ratio, Stomach: 4 ± 2
